From patent EP0608858A1, “5-Membered heterocycles as aggregation inhibitors” (Dr. Karl Thomae GmbH, priority 1993, dated 1994)
Structures can show the parent of a compound that is named as a salt.

Experiments:
[1] = test system: Thrombozytenaggregation; assay: Collagen-induced platelet aggregation (Born and Cross) in platelet-rich plasma; format: cell-based, gesunder Versuchspersonen; conditions: human platelet-rich plasma, 10 min preincubation with substance at 37°C, read-out: Hemmung der Plättchenaggregation EC₅₀
Description: 2. Antithrombotische Wirkung
Die Thrombozytenaggregation wird nach der Methode von Born und Cross (J. Physiol. 170, 397 (1964)) in plättchenreichem Plasma gesunder Versuchspersonen gemessen. Zur Gerinnungshemmung wird das Blut mit Natriumcitrat 3,14 % im Volumenverhältnis 1:10 versetzt.
Collagen-induzierte Aggregation
Der Verlauf der Abnahme der optischen Dichte der Plättchensuspension wird nach Zugabe der aggregationsauslösenden Substanz photometrisch gemessen und registriert. Aus dem Neigungswinkel der Dichtekurve wird auf die Aggregationsgeschwindigkeit geschlossen. Der Punkt der Kurve, bei dem die größte Lichtdurchlässigkeit vorliegt, dient zur Berechnung der "optical density".
Die Collagen-Konzentration wird möglichst gering gewählt, aber doch so, daß sich eine irreversibel verlaufende Reaktionskurve ergibt. Verwendet wird das handelsübliche Collagen der Firma Hormonchemie, München. Vor der Collagen-Zugabe wird das Plasma jeweils 10 Minuten mit der Substanz bei 37°C inkubiert.
Aus den Konzentrations-Wirkungskurven wird die EC₅₀ berechnet, die die Konzentration beschreibt, bei der die Änderung der "optical density" halbmaximal gehemmt ist.

[2] = test system: Humanthrombozyten; assay: Competitive binding of ³H-BIBU 52 / test substance to human platelets; conditions: human platelets in plasma, ³H-BIBU 52 5 nM, 20 min at room temperature; read-out: Kompetitive Bindung ³H-BIBU 52 Textsubstanz an Humanthrombozyten IC₅₀
Description: 1. Kompetitive Bindung ³H-BIBU 52/Testsubstanz an Humanthrombozyten:
Eine Suspension von Humanthrombozyten in Plasma wird mit ³H-BIBU 52 [= (3S,5S)-5-[(4'-Amidino-4-biphenylyl)oxymethyl]-3-[(carboxyl)methyl]-2-pyrrolidinon[3-³H-4-biphenylyl]], das den literaturbekannten Liganden ¹²⁵I-Fibrinogen ersetzt, (siehe deutsche Patentanmeldung P 42 14 245.8 der gleichen Anmeldezin vom 30. 04. 1992, internes Zeichen: Case 5/1093-FL) und verschiedenen Konzentrationen der zu testenden Substanz inkubiert. Der freie und gebundene Ligand wird durch Zentrifugation getrennt und durch Szintillationszählung quantitativ bestimmt. Aus den Meßwerten wird die Hemmung der ³H-BIBU 52-Bindung durch die Testsubstanz bestimmt.
Hierzu wird aus einer Antikubitalvene Spenderblut entnommen und mit Trinatriumzitrat antikoaguliert (Endkonzentration 13 mM) . Das Blut wird 10 Minuten bei 170 x g zentrifugiert und das überstehende plättchenreiche Plasma (PRP) abgenommen. Das Restblut wird zur Gewinnung von Plasma nocheinmal scharf abzentrifugiert. Das PRP wird mit autologem Plasma 1:10 verdünnt. 750 µl werden mit 50 µl physiologischer Kochsalzlösung, 100 µl Testsubstanzlösung, 50 µl ¹⁴C-Sucrose (3.700 Bq) und 50 µl ³H-BIBU 52 (Endkonzentration: 5 nM.) bei Raumtemperatur 20 Minuten inkubiert. Zur Messung der unspezifischen Bindung wird anstelle der Testsubstanz 5 µl BIBU 52 (Endkonzentration: 30 µM) eingesetzt. Die Proben werden 20 Sekunden bei 10000 x g zentrifugiert und der Überstand abgezogen. 100 µl hiervon werden zur Bestimmung des freien Liganden gemessen. Das Pellet wird in 500 µl 0,2N NaOH gelöst, 450 µl werden mit 2 ml Szintillator und 25 µl 5N HCl versetzt und gemessen. Das im Pellet noch verbliebene Restplasma wird aus dem ¹⁴C-Gehalt bestimmt, der gebundene Ligand aus der ³H-Messung. Nach Abzug der unspezifischen Bindung wird die Pelletaktivität gegen die Konzentration der Testssubstanzaufgetragen und die Konzentration für eine 50%ige Hemmung der Bindung ermittelt.

[3] = test system: Humanthrombozyten; assay: Ex vivo inhibition of collagen-induced aggregation of human platelets by rat plasma obtained after oral dosing; format: in vivo; conditions: rat plasma obtained after oral 10 mg/kg, after 3 hours
Procedure: Außerdem erzielt man beispielsweise mit dem nach peroraler Gabe vom 10 mg/kg der Verbindung des Beispiels 2(19) gewonnenen Rattenplasma ex vivo nach 3 Stunden eine 80%ige Hemmung der durch Kollagen induzierten Aggregration von Humanthrombozyten.

[4] = test system: Mäusen; assay: Tolerability after intravenous administration to mice; format: in vivo; conditions: 30 mg/kg, 3 mice each

EC50 [1] [nM]	IC50 [2] [nM]	SMILES	Hemmung der durch Kollagen induzierten Aggregration von Humanthrombozyten [3] [%]	Tiere gestorben [4]
380	550	COC(=O)[C@H]1CC[C@H](c2nnc(-c3ccc(C4CCNCC4)cc3)s2)CC1 [2(3), 2-[trans-4-(Methoxycarbonyl)-cyclohexyl)-5-[4-(4-piperidyl)-phenyl]-1,3,4-thiadiazol-hydrochlorid]		
		CCOC(=O)[C@H]1CC[C@H](c2nnc(-c3ccc(C4CCNCC4)cc3)s2)CC1.Cl [2(19), 2-[trans-4-(Ethoxycarbonyl)-cyclohexyl]-5-[4-(4-piperidyl)-phenyl]-1,3,4-thiadiazol-hydrochlorid]	80	
4400	6800	O=C(O)CCCCc1nnc(-c2ccc(C3CCNCC3)cc2)o1 [3(1), 2-(4-Carboxybutyl)-5-[4-(4-piperidyl)-phenyl]-1,3,4-oxadiazol]		
40	1.6	CCCCS(=O)(=O)NC(Cc1cn(-c2ccc(-c3ccc(C(=N)N)cc3)nn2)cn1)C(=O)O (centres unmarked) [3(3), 1-[6-(4-Amidino-phenyl)-3-pyridazinyl]-4-[2-(n-butan-sulfonylamino)-2-carboxy-ethyl]-imidazol-hydrochlorid]		
3000	24000	COC(=O)CCNC(=O)c1nnc(-c2ccc(C3CCNCC3)cc2)s1 [Beispiel 2, 2-[[2-(Methoxycarbonyl)-ethyl]-aminocarbonyl]-5-[4-(4-piperidyl)-phenyl]-1,3,4-thiadiazol-hydrochlorid]		
880	400	O=C(O)CCNC(=O)c1nnc(-c2ccc(C3CCNCC3)cc2)s1 [Beispiel 3, 2-[(2-Carboxyethyl)-aminocarbonyl]-5-[4-(4-piperidyl)-phenyl]-1,3,4-thiadiazol-hydrochlorid]		

SMILES	EC50 [1] [nM]	IC50 [2] [nM]	Hemmung der durch Kollagen induzierten Aggregration von Humanthrombozyten [3] [%]	Tiere gestorben [4]
Cl.O=C(O)[C@H]1CC[C@H](c2nnc(-c3ccc(C4CCNCC4)cc3)s2)CC1 [5(3), 2-(trans-4-Carboxy-cyclohexyl)-5-[4-(4-piperidyl)-phenyl]-1,3,4-thiadiazol-hydrochlorid]	100	11		keine Tiere gestorben
Cl.O=C(O)CCCCc1nnc(-c2ccc(C3CCNCC3)cc2)s1 [Beispiel 5, 2-(4-Carboxy-butyl)-5-[4-(4-piperidyl)-phenyl]-1,3,4-thiadiazol-hydrochlorid]	320	510		keine Tiere gestorben
